Assay results published in US20240309043A1, “THERAPEUTICALLY ACTIVE STEROIDAL DERIVATIVES” (Organon R&D Finland Ltd., priority 2017, published 2024).

Legend:
Type in all cases: biochemical
[1] = biological target: T1, recombinant human 17β-HSD1 (Homo sapiens, UniProt P14061); experiment: Inhibition of recombinant human 17β-HSD1; conditions: inhibitor 100 nM; 30 nM estrone, 1 mM NADPH, 30 min RT
T1 construct: made in house; host or cells: Sd9 (Sf9) insect cells, baculovirus (Bac to Bac Expression System)
T1 sequence (P14061 1-328): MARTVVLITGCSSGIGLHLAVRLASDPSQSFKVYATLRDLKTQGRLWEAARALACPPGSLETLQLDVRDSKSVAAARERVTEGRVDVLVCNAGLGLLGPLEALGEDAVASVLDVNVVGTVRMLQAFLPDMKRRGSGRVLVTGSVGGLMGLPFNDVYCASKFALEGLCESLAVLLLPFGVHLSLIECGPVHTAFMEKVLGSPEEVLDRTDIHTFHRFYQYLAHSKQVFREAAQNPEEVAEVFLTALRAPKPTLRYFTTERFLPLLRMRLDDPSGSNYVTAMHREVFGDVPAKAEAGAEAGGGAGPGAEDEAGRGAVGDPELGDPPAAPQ
Procedure, shortened: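 Microsomes from Sf9 cells expressing human 17β-HSD1 (1 μg/ml) were incubated for 30 min at RT in 20 mM KH2PO4 pH 7.4 with 30 nM ³H-estrone, 1 mM NADPH and inhibitor at 1 μM or 0.1 μM (1% DMSO). Estrone-to-estradiol conversion was measured by radio-HPLC after TCA stop, and % inhibition was taken as 100 − % conversion.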

[2] = biological target: T2, recombinant human 17β-HSD2 (Homo sapiens, UniProt P37059); experiment: Inhibition of recombinant human 17β-HSD2; conditions: inhibitor 1 μM; 50 nM estradiol, 1 mM NADH, 30 min RT
T2 construct: made in house; host or cells: Sd9 (Sf9) insect cells, baculovirus (Bac to Bac Expression System)
T2 sequence (P37059 1-387): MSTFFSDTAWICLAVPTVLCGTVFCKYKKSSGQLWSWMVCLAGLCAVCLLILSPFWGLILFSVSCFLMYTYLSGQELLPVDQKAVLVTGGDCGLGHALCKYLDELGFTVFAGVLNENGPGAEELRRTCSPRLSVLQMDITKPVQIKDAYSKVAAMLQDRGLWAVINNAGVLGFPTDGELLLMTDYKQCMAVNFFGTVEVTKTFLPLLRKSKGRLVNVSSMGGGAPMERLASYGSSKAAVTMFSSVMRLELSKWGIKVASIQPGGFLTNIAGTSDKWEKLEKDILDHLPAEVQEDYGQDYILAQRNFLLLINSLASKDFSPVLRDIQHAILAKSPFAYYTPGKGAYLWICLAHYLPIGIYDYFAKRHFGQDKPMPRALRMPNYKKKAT
Procedure, shortened: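 Sf9 baculovirus-expressed enzyme membrane extract (4 μg/ml) incubated 30 min at RT in 20 mM KH2PO4 pH 8.5 with 50 nM estradiol (³H-tracer) and 1 mM NADH, inhibitor at 1 μM or 0.1 μM, 1% DMSO. TCA-stopped; estradiol-to-estrone conversion by radio-HPLC, % inhibition = 100 − % conversion.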

[3] = system: HSD1 enzyme that is expressed in rabbit placenta tissue; experiment: Inhibition of E1 to E2 conversion in rabbit placenta tissue homogenate; conditions: for Rabbit placenta inhibition % @100 nM: inhibitor 100 nM, 30 nM estrone, 30 min

Row | SMILES | inhibition at 0.1 µM [1] [%] | inhibition at 1 µM [2] [%] | Rabbit placenta inhibition % @100 nM [3] [%] | Rabbit placenta inhibition % @1000 nM ([3]; inhibitor 1000 nM) [% @]
1 | C[C@]12CCC3c4cccc(F)c4CCC3C1[C@H](CCC(=O)N1CCC3(CCOCC3)C1)C/C2=N\O (stereo partly drawn) [Compound 128, 3-((13S,15R,E)-4-fluoro-17-(hydroxyimino)-13-methyl-7,8,9,11,12,13,14,15,16,17-decahydro-6H-cyclopenta[a]phenanthren-15-yl)-1-(8-oxa-2-azaspiro[4.5]decan-2-yl)propan-1-one] | 59 | 6 | 2 | 
2 | Cc1ccnc(NC(=O)CC[C@@H]2C/C(=N\O)[C@@]3(C)CCC4c5cccc(F)c5CCC4C23)c1 (stereo partly drawn) [Compound 130, 3-((13S,15R,E)-4-fluoro-17-(hydroxyimino)-13-methyl-7,8,9,11,12,13,14,15,16,17-decahydro-6H-cyclopenta[a]phenanthren-15-yl)-N-(4-methylpyridin-2-yl)propanamide] | 92 | 14 | 40 | 
3 | COc1ccnc(NC(=O)CC[C@@H]2C/C(=N\O)[C@@]3(C)CCC4c5cccc(F)c5CCC4C23)c1 (stereo partly drawn) [Compound 132, 3-((13S,15R,E)-4-fluoro-17-(hydroxyimino)-13-methyl-7,8,9,11,12,13,14,15,16,17-decahydro-6H-cyclopenta[a]phenanthren-15-yl)-N-(4-methoxypyridin-2-yl)propanamide] | 87 | 6 | 27 | 
4 | Cc1cc(NC(=O)CC[C@@H]2C/C(=N\O)[C@@]3(C)CCC4c5ccc(F)cc5CCC4C23)no1 (stereo partly drawn) [Compound 134, 3-((13S,15R,E)-3-fluoro-17-(hydroxyimino)-13-methyl-7,8,9,11,12,13,14,15,16,17-decahydro-6H-cyclopenta[a]phenanthren-15-yl)-N-(5-methylisoxazol-3-yl)propanamide] | 75 | -3 | 46 | 
5 | C[C@]12CCC3c4cccc(F)c4CCC3C1[C@H](CCC(=O)N1CCOCC1)C/C2=N\O (stereo partly drawn) [Compound 136, 3-((13S,15R,E)-4-fluoro-17-(hydroxyimino)-13-methyl-7,8,9,11,12,13,14,15,16,17-decahydro-6H-cyclopenta[a]phenanthren-15-yl)-1-morpholinopropan-1-one] | 39 | -1 | 18 | 
6 | C[C@]12CCC3c4cccc(F)c4CCC3C1[C@H](CCC(=O)Nc1cc(F)ccn1)C/C2=N\O (stereo partly drawn) [Compound 140, 3-((13S,15R,E)-4-fluoro-17-(hydroxyimino)-13-methyl-7,8,9,11,12,13,14,15,16,17-decahydro-6H-cyclopenta[a]phenanthren-15-yl)-N-(4-fluoropyridin-2-yl)propanamide] | 86 | 6 | 24 | 
7 | C[C@]12CCC3c4cccc(F)c4CCC3C1[C@H](CCC(=O)Nc1ncccc1F)C/C2=N\O (stereo partly drawn) [Compound 142, 3-((13S,15R,E)-4-fluoro-17-(hydroxyimino)-13-methyl-7,8,9,11,12,13,14,15,16,17-decahydro-6H-cyclopenta[a]phenanthren-15-yl)-N-(3-fluoropyridin-2-yl)propanamide] | 93 | -1 | 34 | 
8 | C[C@]12CCC3c4cccc(F)c4CCC3C1[C@H](CCC(=O)Nc1cccc(F)n1)C/C2=N\O (stereo partly drawn) [Compound 144, 3-((13S,15R,E)-4-fluoro-17-(hydroxyimino)-13-methyl-7,8,9,11,12,13,14,15,16,17-decahydro-6H-cyclopenta[a]phenanthren-15-yl)-N-(6-fluoropyridin-2-yl)propanamide] | 74 | 10 | 24 | 
9 | C[C@]12CCC3c4cccc(F)c4CCC3C1[C@H](CCC(=O)Nc1ncc(F)cc1F)C/C2=N\O (stereo partly drawn) [Compound 146, N-(3,5-difluoropyridin-2-yl)-3-((13S,15R,E)-4-fluoro-17-(hydroxyimino)-13-methyl-7,8,9,11,12,13,14,15,16,17-decahydro-6H-cyclopenta[a]phenanthren-15-yl)propanamide] | 92 | 8 |  | 63
10 | C[C@]12CCC3c4cccc(F)c4CCC3C1[C@H](CCC(=O)Nc1ccc(C#N)cn1)C/C2=N\O (stereo partly drawn) [Compound 148, N-(5-cyanopyridin-2-yl)-3-((13S,15R,E)-4-fluoro-17-(hydroxyimino)-13-methyl-7,8,9,11,12,13,14,15,16,17-decahydro-6H-cyclopenta[a]phenanthren-15-yl)propanamide] | 90 | 9 | 35 | 
11 | C[C@]12CCC3c4ccc(F)cc4CCC3C1[C@H](CCC(=O)Nc1ncccc1F)C/C2=N\O (stereo partly drawn) [Compound 150a, 3-((13S,15R,E)-3-fluoro-17-(hydroxyimino)-13-methyl-7,8,9,11,12,13,14,15,16,17-decahydro-6H-cyclopenta[a]phenanthren-15-yl)-N-(3-fluoropyridin-2-yl)propanamide] | 74 | 0 | 10 | 
12 | C[C@]12CCC3c4ccc(F)cc4CCC3C1[C@H](CCC(=O)Nc1ncccc1F)C/C2=N/O (stereo partly drawn) [Compound 150b, 3-((13S,15R,Z)-3-fluoro-17-(hydroxyimino)-13-methyl-7,8,9,11,12,13,14,15,16,17-decahydro-6H-cyclopenta[a]phenanthren-15-yl)-N-(3-fluoropyridin-2-yl)propanamide] | 30 | 6 | 3 | 
13 | C[C@]12CCC3c4ccc(F)cc4CCC3C1[C@H](CCC(=O)Nc1ncc(F)cc1F)C/C2=N\O (stereo partly drawn) [Compound 152, N-(3,5-difluoropyridin-2-yl)-3-((13S,15R,E)-3-fluoro-17-(hydroxyimino)-13-methyl-7,8,9,11,12,13,14,15,16,17-decahydro-6H-cyclopenta[a]phenanthren-15-yl)propanamide] | 56 | 2 | 6 | 
14 | C[C@]12CCC3c4ccc(F)cc4CCC3C1[C@H](CCC(=O)Nc1ccc(N3CCOCC3)cn1)C/C2=N\O (stereo partly drawn) [Compound 154, 3-((13S,15R,E)-3-fluoro-17-(hydroxyimino)-13-methyl-7,8,9,11,12,13,14,15,16,17-decahydro-6H-cyclopenta[a]phenanthren-15-yl)-N-(5-morpholinopyridin-2-yl)propanamide] | 83 | 7 | 38 | 
15 | C[C@]12CCC3c4ccc(Cl)cc4CCC3C1[C@H](CCC(=O)Nc1cc(F)ccn1)C/C2=N\O (stereo partly drawn) [Compound 156, 3-((13S,15R,E)-3-chloro-17-(hydroxyimino)-13-methyl-7,8,9,11,12,13,14,15,16,17-decahydro-6H-cyclopenta[a]phenanthren-15-yl)-N-(4-fluoropyridin-2-yl)propanamide] | 47 | 10 | 3 | 
16 | C[C@]12CCC3c4ccccc4CCC3C1[C@H](CCC(=O)Nc1cc(F)ccn1)C/C2=N\O (stereo partly drawn) [Compound 158, N-(4-fluoropyridin-2-yl)-3-((13S,15R,E)-17-(hydroxyimino)-13-methyl-7,8,9,11,12,13,14,15,16,17-decahydro-6H-cyclopenta[a]phenanthren-15-yl)propanamide] | 36 | 4 | 12 | 
17 | C[C@]12CCC3c4ccccc4CCC3C1[C@H](CCC(=O)Nc1ncccc1F)C/C2=N\O (stereo partly drawn) [Compound 160, N-(3-fluoropyridin-2-yl)-3-((13S,15R,E)-17-(hydroxyimino)-13-methyl-7,8,9,11,12,13,14,15,16,17-decahydro-6H-cyclopenta[a]phenanthren-15-yl)propanamide] | 66 | 5 | 10 | 
